As a reminder, the solubility is the dissolved amount per volume that the medium holds. A high value points to much dissolved substance.

The values below come from US12662714B2, “Method for separation of adjacent lanthanide elements” (UT-Battelle, LLC, priority 2022, dated 2026).

The conditions of series [1]: REE(III)-HCl-EHEHPA system; cited from earlier work.
A short description of another series: Solubility. The class given is physicochemical. An excerpt:
The solubility of 1 in 0.9 M nitric acid (HNO3) is >0.2 M. The three DGAs selected for this study were: N,N′-dimethyl-N,N′-di(n-octyl)diglycolamide (DMDODGA, 3), N,N,N′,N′-tetra(n-octyl)diglycolamide (TODGA, 4), and N,N-didodecyl-2-((1-hexyl-2-oxopiperidin-3-yl)oxy)acetamide (DDHPA, 5), whose structures are shown above. […] However, they differ in terms of binding affinity for lanthanides in the order 3>4>5. The stability of DGA-Ln complexes is affected by the size of N-alkyl substituents on the DGA ligand; larger substituents tend to obstruct the metal ion binding site that is decorated with three oxygen donor groups, resulting in diminished affinity for Lns with lower effective nuclear charge. Ligand 2, with unconstrained amide groups, was synthesized as a control substrate.
However, its performance in separating Lns is very different.

Series [2] can be described thus: SAXS, radius of gyration of aggregates in solution. It counts as physicochemical. How it is done:
The mesoscale structure of 1 and 1-Pr complexes in the aqueous solution and the local coordination environment around Pr in the 1-Pr structure were investigated using small-angle X-ray scattering (SAXS) and extended X-ray absorption fine structure (EXAFS) spectroscopy at the Pr L3 edge, respectively. In the absence of Pr, 13 mM of 1 in 1 M HNO3 forms large aggregates with a radius of gyration (Rg) of ˜15 A, as represented by the steepest slope in FIG. 5a. The addition of smaller amounts of Pr (2.5 mM) reduces the aggregate size in solution by ˜5 A.
Under conditions where 1 is expected to be fully coordinated with Pr (assuming the formation of [Pr-(1)2(NO3)3], when [Pr]=7.5 mM), the aggregates further reduce in size (Rg=6.7 A). This is consistent with the trends seen in the NMR data above. In addition, variable temperature NMR was taken of 1 without and with Pr. At elevated temperatures (up to 313 K), the spectral quality of 1 degrades dramatically and is irreversible, which is indicative of additional aggregate formation in solution. In the presence of Pr, however, the ^1H chemical shifts representing 1 remain unchanged and the peaks narrow due to increased molecular motion.

Series [3] can be described thus: 1H NMR titration, binding constants for La complexes. Conditions: 1 M DNO3. An excerpt: Complexation of 1 with lanthanides was further assessed using nuclear magnetic resonance (NMR) spectroscopy. […] As the concentration of La increases (top to bottom), a downfield shift of ˜1.1 ppm occurs in the most downfield aromatic ^1H of 1, confirming complex formation. […] For 1 alone, some heterogeneity and broadening in the peak structure is observed, which can be attributed to aggregate formation. While the ethylene glycol units solubilize 1, the hydrophobic cores still cluster together to form aggregate structures (vide infra). As the La concentration increases, it disrupts these clusters and stabilizes 1-La units. The change in chemical shift of the most downfield aromatic ^1H was used to assess binding constants for La complexes with 1 in 1 M DNO3. The results were fitted using commercial software to yield binding constants of K1>10^2 M^−1 and K2>>10^5 M^−1 for the 1:1 and 2:1 ligand to metal binding modes, respectively. […] In the Lu titration, some downfield shift was observed, but the peaks became increasingly heterogenous and broad. This may be attributed to poor binding affinity where transient interactions occur, but no stable structure was formed, which was consistent with the selectivity data presented above.

The nature of series [4]: Extraction of 14 Lns from aqueous phase into oil phase. How it is done:
(§1) General procedure: a 500 microliter (μL) aqueous phase consisting of 7 mM Ln(III) (0.5 mM of each Ln(III)) in 1 M HNO3 without or with aqBLPhen 1 (3, 13, or 25 mM) was contacted with an equal volume of organic phase containing 0.1 M DGA (3, 4, or 5). The two phases were contacted in a 1:1 ratio of organic/aqueous by end-over-end rotation in individual 1.8 mL capacity snap-top Eppendorf tubes using a rotating wheel in an airbox set at 25.5±0.5° C. Contacts were performed in triplicate with a contact time of 1 hour. The samples were centrifuged at 1811 g for 2 min at room temperature to separate the phases. Each triplicate was then sub-sampled, using a 300 μL aliquot of the aqueous phase transferred to individual polypropylene tubes and diluted with 2% HNO3 for analysis using ICP-MS or ICP-OES. Two samples of the initial lanthanide solution were similarly prepared.
(§2) The ability of 1 and DGA to separate Lns was evaluated using a two-component, immiscible solvent system: nitric acid (aqueous phase containing 1) and n-dodecane with 10 vol % 1-octanol (oil phase containing DGA). The amount of Ln partitioned from the aqueous phase into the oil phase was measured using inductively coupled plasma optical emission spectroscopy or mass spectrometry. The Ln concentration in each phase was then used to calculate the separation efficiency.
(§3) The percentage of Lns in the aqueous and the oil phases is presented in FIGS. 1a-1i. for each DGA in the absence and presence of the aqueous complexant 1 (E=([Ln1]/[Ln1]0)×100%). The distribution ratios (i.e., D=[Ln1]org/[Ln1]aq) for select Lns are listed in Table 1, which also include selectivities (i.e., SFLn1/Ln2=DLn1/DLn2), for several Ln pairs. An efficient separation of Lns was achieved when DLn1>1 and DLn2<1 or ELn1>50% and ELn2<50%. […] Neither of the three DGAs can separate Lns in a single extraction stage.

Series [5] in a line: Solvent extraction of Lns, separation factor Sm/Nd. The settings on record: 0.1 M DGA, 1 M HNO3, 1 h. How it is done: as §1, §2, §3
A short description of series [6]: Solvent extraction of Lns, separation factor Nd/Pr. The settings on record: 0.1 M DGA, 1 M HNO3, 1 h. As for the experimental part: as §1, §2, §3
A short description of series [7]: Solvent extraction of Lns, separation factor Gd/La. The settings on record: 0.1 M DGA, 1 M HNO3, 1 h. How it is done: as §1, §2, §3
Series [8] can be described thus: Solvent extraction of Lns, distribution ratio of Sm. Conditions: 0.1 M DGA, 1 M HNO3, 1 h. How it is done: as §1, §2, §3
A short description of series [9]: Solvent extraction of Lns, distribution ratio of Gd. Conditions: 0.1 M DGA, 1 M HNO3, 1 h. As for the experimental part:
as §1, §2, §3

Series [10] in a line: Solvent extraction of Lns, separation factor Dy/Nd. Conditions: 0.1 M DGA, 1 M HNO3, 1 h. How it is done: as §1, §2, §3
A short description of series [11]: Solvent extraction of Lns, distribution ratio of La. Conditions: 1 M HNO3, 1 h. How it is done:
as §1, §2, §3

Series [12] can be described thus: Solvent extraction of Lns, separation factor Tb/Gd. Conditions: 0.1 M DGA, 1 M HNO3, 1 h. How it is done: as §1, §2, §3
The nature of series [13]: Solvent extraction of Lns, distribution ratio of Nd. The settings on record: 0.1 M DGA, 1 M HNO3, 1 h. As for the experimental part:
as §1, §2, §3

Setting [14] is: [1] 0 mM, 0.1 M DGA in n-dodecane with 10 vol % 1-octanol, 0.5 mM each Ln.

`CCCCC(CC)COP(=O)(O)CC(CC)CCCC` (stereo not shown) [EHEHPA, 2-ethylhexylphosphonic acid mono-(2-ethylhexyl) ester]: the “selectivity for Nd over Pr” value in series [1] is reported as 1.17.

Turning to `O=c1[nH]c(COCCO)c(COCCO)c2cc3ccc4cc5c(COCCO)c(COCCO)[nH]c(=O)c5nc4c3nc12` [Ligand 1, 3,4,9,10-tetrakis((2-hydroxyethoxy)methyl)-2,11-dihydrodipyrido[3,4-b:4′,3′-j]1,10 phenanthroline-1,12-dione], in the series “Solubility” (aqueous buffer, in 0.9 M nitric acid (HNO3)), the solubility was over 200 mM. In series [2] (13 mM of 1, Pr 2.5 mM), the “reduction of aggregate size” value is about 5 A. In addition, the “radius of gyration (Rg) of aggregates” value is on record as 6.7 A in series [2] (13 mM of 1, [Pr]=7.5 mM) and about 15 A in [2] (13 mM of 1 in 1 M HNO3, absence of Pr). In addition, the “binding constant K1 (1:1 ligand to metal)” value in series [3] was > 10^2 M^−1. Besides, in series [3], the “binding constant K2 (2:1 ligand to metal)” value is > 10^5 M^−1.

Take `O=C(c1ccc2ccc3ccc(C(=O)N(CCOCCO)CCOCCO)nc3c2n1)N(CCOCCO)CCOCCO` [Ligand 2]: the aqueous solubility entry in the series “Solubility” (aqueous) is “excellent aqueous solubility”. For the same compound, the “affinity for light lanthanides as aqueous complexant” value in series [4] (13 mM in aqueous phase, FIG. 2) was “limited affinity for light lanthanides”.

Turning to `CCCCCCCCN(CCCCCCCC)C(=O)COCC(=O)N(CCCCCCCC)CCCCCCCC` [Ligand 4, N,N,N′,N′-tetra(n-octyl)diglycolamide], the SFSm/Nd separation factor amounted to 6.4 in series [5] ([1] 0 mM), 13 in series [5] ([1] 3 mM), 16 in series [5] ([1] 13 mM) and 13 in [5] ([1] 25 mM). For the same compound, the SFNd/Pr separation factor in [6] ([1] 0 mM) was found to be 2.2; in series [6] ([1] 3 mM) it was 2.7; in [6] ([1] 13 mM), 2.2; in series [6] ([1] 25 mM) it was 1.8. The SFGd/La separation factor was 153 in [7] ([1] 0 mM), 783 in series [7] ([1] 3 mM), 413 in series [7] ([1] 13 mM) and 308 in series [7] ([1] 25 mM). Moreover, the DSm distribution ratio in series [8] ([1] 0 mM) is 120; in series [8] ([1] 3 mM) it was 28.1; in series [8] ([1] 13 mM), 2.35; in [8] ([1] 25 mM) it was 1.82. Also, the “extraction of Lns from the aqueous phase into the oil phase” value in [4] (0.1 M DGA alone, 14 Lns 0.5 mM each, 1 M HNO3) is “reduced affinity for light Lns”. For the same compound, the DGd distribution ratio in series [9] ([1] 0 mM) is given as 386; in series [9] ([1] 3 mM), 164; in [9] ([1] 13 mM), 19.3; in series [9] ([1] 25 mM), 14.2. The SFDy/Nd separation factor in series [10] ([1] 0 mM) was 70; in series [10] ([1] 3 mM) it was 408; in series [10] ([1] 13 mM), 1052; in [10] ([1] 25 mM), 782. Moreover, the DLa distribution ratio in series [11] (setting [14]) is 2.52; in series [11] ([1] 3 mM, 0.1 M DGA) it was 0.21; in series [11] ([1] 13 mM, 0.1 M DGA), 0.05; in [11] ([1] 25 mM, 0.1 M DGA), 0.05. Also, the SFTb/Gd separation factor in [12] ([1] 0 mM) stood at 2.7; in [12] ([1] 3 mM) it was 3.4; in series [12] ([1] 13 mM) it was 5.4; in series [12] ([1] 25 mM), 5.3. Further, the DNd distribution ratio was determined as 18.6 in series [13] ([1] 0 mM), 2.18 in series [13] ([1] 3 mM), 0.15 in series [13] ([1] 13 mM) and 0.14 in series [13] ([1] 25 mM).

With `CCCCCCCCCCCCN(CCCCCCCCCCCC)C(=O)COC1CCCN(CCCCCC)C1=O` (stereo not shown) [Ligand 5, N,N-didodecyl-2-((1-hexyl-2-oxopiperidin-3-yl)oxy)acetamide], the SFSm/Nd separation factor came out at 7.2 in series [5] ([1] 0 mM), 8.0 in series [5] ([1] 3 mM), 2.0 in series [5] ([1] 13 mM) and 2.5 in [5] ([1] 25 mM). In addition, the SFNd/Pr separation factor in series [6] ([1] 0 mM) is reported as 2.0; in [6] ([1] 3 mM) it was 1.8; in [6] ([1] 13 mM), 0.9; in series [6] ([1] 25 mM) it was 1.0. Besides, the SFGd/La separation factor in series [7] ([1] 0 mM) is 128; in series [7] ([1] 3 mM), 109; in [7] ([1] 13 mM) it was 12; in series [7] ([1] 25 mM), 14. The DSm distribution ratio in series [8] ([1] 0 mM) turned out to be 6.21; in [8] ([1] 3 mM), 2.53; in series [8] ([1] 13 mM), 0.16; in series [8] ([1] 25 mM) it was 0.17. Further, the DGd distribution ratio in series [9] ([1] 0 mM) is 23.0; in series [9] ([1] 3 mM), 13.4; in series [9] ([1] 13 mM) it was 0.98; in series [9] ([1] 25 mM) it was 0.88. Besides, the SFDy/Nd separation factor was 130 in series [10] ([1] 0 mM), 260 in series [10] ([1] 3 mM), 133 in series [10] ([1] 13 mM) and 123 in series [10] ([1] 25 mM). For the same compound, the DLa distribution ratio in series [11] (setting [14]) was determined as 0.18; in series [11] ([1] 3 mM, 0.1 M DGA) it was 0.12; in series [11] ([1] 13 mM, 0.1 M DGA) it was 0.08; in series [11] ([1] 25 mM, 0.1 M DGA), 0.06. Besides, the SFTb/Gd separation factor in [12] ([1] 0 mM) stood at 3.3; in [12] ([1] 3 mM), 3.7; in [12] ([1] 13 mM), 5.1; in [12] ([1] 25 mM) it was 5.8. Further, the DNd distribution ratio in series [13] ([1] 0 mM) is on record as 0.87; in [13] ([1] 3 mM) it was 0.32; in [13] ([1] 13 mM) it was 0.08; in [13] ([1] 25 mM), 0.07.
